Results from ChEMBL document CHEMBL3137667, “[Drug-induced liver injury; fourteenth updated edition of the bibliographic database of liver injuries and related drugs]” (Gastroenterol Clin Biol, 2004).

Key:
[1] = human
[2] = human; remark: listed apart in the source
[3] = human; remark: listed apart in the source
[4] = human; remark: listed apart in the source
[5] = human, serum
[6] = Highest frequency of acute liver toxicity observed during clinical trials, expressed as a percentage. [column '% AIGUE' in source]; settings: human
[7] = human; remark: listed apart in the source
[8] = human, serum; remark: listed apart in the source
[9] = Highest frequency of moderate liver toxicity observed during clinical trials, expressed as a percentage. [column '% BIOL' in source]; settings: human
[10] = human; remark: listed apart in the source
[11] = human, serum, 4383 h
[12] = human; remark: listed apart in the source
[13] = human; remark: listed apart in the source
[14] = human; remark: listed apart in the source
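Throughout, for Hepatotoxicity (association with vascular disease): count of indexed literature references reporting vascular liver injury in humans, e.g. peliosis hepatitis, hepatic veno-occlusive disease or Budd-Chiari syndrome.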
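Throughout, for Hepatotoxicity (benign tumour): value is a count of indexed literature references citing a benign tumour confirmed by histopathology.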
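Throughout, for Hepatotoxicity (choleostasis): human cholestatic liver injury, shown by histopathology or by peak ALT or AST elevation over alkaline phosphatase ratio below 2, value counts indexed literature reports.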
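Throughout, for Hepatotoxicity (chronic liver disease): chronic liver injury confirmed by histopathology or persistently raised serum aminotransferase activity beyond 6 months, value given as the count of indexed literature references.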
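Throughout, for Hepatotoxicity (cirrhosis): value is a count of indexed literature references reporting cirrhosis confirmed by histopathology.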
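Throughout, for Hepatotoxicity (cytolytic): human cytolytic liver injury, shown by histopathology or by a ratio above 5 of peak ALT or AST elevation to alkaline phosphatase elevation, value counts indexed references.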
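Throughout, for Hepatotoxicity (granulomatous hepatitis): value is a count of indexed literature references reporting granulomatous liver disease confirmed by histopathology.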
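Throughout, for Hepatotoxicity (malignant tumour): malignant tumour confirmed by histopathology, value gives the count of indexed literature references reporting it.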
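Throughout, for Hepatotoxicity (severe hepatitis): human clinical data: severe hepatitis, meaning potentially life-threatening liver failure or clinically observed cases, the value counts how many indexed literature references report it.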
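Throughout, for Hepatotoxicity (steatosis): steatosis confirmed by histopathology, value is the count of indexed references.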

| SMILES | Hepatotoxicity (benign tumour) [1] | Hepatotoxicity (cytolytic) [2] | Hepatotoxicity (association with vascular disease) [3] | Hepatotoxicity (choleostasis) [4] | Hepatotoxicity (acute) [5] | Hepatotoxicity (acute) [6] | Hepatotoxicity (malignant tumour) [7] | Hepatotoxicity (moderate) [8] | Hepatotoxicity (moderate) [9] | Hepatotoxicity (granulomatous hepatitis) [10] | Hepatotoxicity (chronic liver disease) [11] | Hepatotoxicity (cirrhosis) [12] | Hepatotoxicity (severe hepatitis) [13] | Hepatotoxicity (steatosis) [14] |
| --- | --- | --- | --- | --- | --- | --- | --- | --- | --- | --- | --- | --- | --- | --- |
| Fc1ccc(C(c2ccc(F)cc2)N2CCN(C/C=C/c3ccccc3)CC2)cc1 [FLUNARIZINE] | 0 | 0 | 0 | 0 | 0 | 0% | 0 | 1 | 1.4% | 0 | 0 | 0 | 0 | 0 |
| C[C@H](C(=O)O)c1ccc2oc(-c3ccc(F)cc3)nc2c1 [FLUNOXAPROFEN] | 0 | 0 | 0 | 0 | 0 | 0% | 0 | 2 | 0% | 0 | 0 | 0 | 0 | 0 |
| CN1CCN(C2=Nc3cc(F)ccc3Cc3ccccc32)CC1 [FLUPERLAPINE] | 0 | 0 | 0 | 0 | 0 | 0% | 0 | 4 | 23% | 0 | 0 | 0 | 0 | 0 |
| CCOC(=O)Nc1ccc(NCc2ccc(F)cc2)nc1N [FLUPIRTINE] | 0 | 0 | 0 | 0 | 0 | 0% | 0 | 2 | 10% | 0 | 0 | 0 | 0 | 0 |
| CC[C@H]1OC(=O)[C@H](C)[C@@H](O[C@H]2C[C@@](C)(OC)[C@@H](O)[C@H](C)O2)[C@H](C)[C@@H](O[C@@H]2O[C@H](C)C[C@H](N(C)C)[C@H]2O)[C@](C)(O)C[C@](C)(F)C(=O)[C@H](C)[C@@H](O)[C@]1(C)O [FLURITHROMYCIN] | 0 | 0 | 0 | 0 | 0 | 0% | 0 | 1 | 3.6% | 0 | 0 | 0 | 0 | 0 |
| O=C(O)P(=O)(O)O [FOSCARNET] | 0 | 0 | 0 | 0 | 0 | 0% | 0 | 2 | 12% | 0 | 0 | 0 | 0 | 0 |
